Reference: ChEMBL document CHEMBL4184172, “Isosteric ribavirin analogues: Synthesis and antiviral activities” (Bioorg Med Chem Lett, 2018)
In brackets after ≈: the same amount, converted by molar mass. Activity calls are given as the source filed them. The calls are words filed in the database; no cut-off is given here.

Tests used:
[1] = Cytotoxicity against pig SPEV cells at 150 ug/ml by microscopic analysis; assay type: cell-based, Sus scrofa
Influenza A virus = experiment: Antiviral activity against Influenza A virus H5N1 (A/duck/Novosibirsk/56/2005) infected in pig SPEV cells assessed as protection against virus-induced cytopathic effect; assay type: functional, organism-based; conditions: for Activity: Influenza A virus (A/duck/Novosibirsk/56/2005(H5N1))
Vero C1008 = experiment: Cytotoxicity against African green monkey Vero E6 cells assessed as alterations in cell morphology at 1000 ug/ml by microscopic analysis; assay type: cell-based; conditions: chlorocebus sabaeus
Hepatitis C virus = experiment: Antiviral activity against Hepatitis C virus infected in pig SPEV cells assessed as protection against virus-induced cytopathic effect; assay type: functional, organism-based, Hepacivirus hominis
[2] = Cytotoxicity against pig SPEV cells by microscopic analysis; assay type: cell-based, Sus scrofa
Human alphaherpesvirus 1 = experiment: Antiviral activity against Human herpesvirus 1 L2 infected in African green monkey Vero E6 cells assessed as protection against virus-induced cytopathic effect; assay type: functional, organism-based; conditions: Human alphaherpesvirus 1, L2, Vero C1008
[3] = Cytotoxicity against African green monkey Vero E6 cells assessed as alterations in cell morphology by microscopic analysis; assay type: cell-based, Vero C1008; conditions: chlorocebus sabaeus

| Compound | Activity [1] | Activity (Influenza A virus) | Activity (Vero C1008) | IC50 (Influenza A virus) | IC50 (Hepatitis C virus) | CC50 [2] | IC50 (Human alphaherpesvirus 1) | CC50 [3] |
| --- | --- | --- | --- | --- | --- | --- | --- | --- |
| CC(C)c1nc(-c2ncn([C@@H]3O[C@H](CO)[C@@H](O)[C@H]3O)n2)no1 | Non-Toxic | inactive | Non-Toxic | – | – | – | – | – |
| Cc1nc(-c2ncn([C@@H]3O[C@H](CO)[C@@H](O)[C@H]3O)n2)no1 | Non-Toxic | – | Non-Toxic | 50 µg/mL (≈ 177 µM) | – | – | – | – |
| Cc1nc(-c2ncn([C@H]3C[C@H](O)[C@@H](CO)O3)n2)no1 | Non-Toxic | inactive | Non-Toxic | – | – | – | – | – |
| NC(=O)c1ncn([C@@H]2O[C@H](CO)[C@@H](O)[C@H]2O)n1 [RIBAVIRIN] | – | – | – | 12.5 µg/mL (≈ 51.2 µM) | 12.5 µg/mL (≈ 51.2 µM) | 75 µg/mL (≈ 307 µM) | – | – |
| OC[C@H]1O[C@@H](n2cnc(-c3ncon3)n2)[C@H](O)[C@@H]1O | Non-Toxic | – | Non-Toxic | – | – | – | 250 µg/mL (≈ 929 µM) | – |
| OC[C@H]1O[C@@H](n2cnc(-c3noc(-c4ccccc4)n3)n2)[C@H](O)[C@@H]1O | Non-Toxic | – | Non-Toxic | – | 8.8 µg/mL (≈ 25.5 µM) | – | – | 380 µg/mL (≈ 1100 µM) |
